Data on one substance can be found in patent US20230014181A1, “CULTURE SYSTEM AND METHODS FOR IMPROVED MODELING OF NEUROLOGICAL CONDITIONS” (Genentech, Inc., priority 2021, published 2023).

One experiment has as its system soluble Aβ42 species. As to the kind of experiment: Anti-Aβ antibody co-treatment rescue of soluble Aβ42 species neurotoxicity in iPSC neurons. It is filed as cell-based, human. As to the method: Error bars+/−s.e.m. and n=4 wells.
To investigate whether AD pathologies can be studied in a controlled, in vitro system of human neurons, cultured human iPSC-derived neurons were treated with synthetic Aβ42 oligomers, prepared by oligomerization of Aβ42 monomers at 4° C. following previously published protocols (FIG. 2A; following Stine et al., 2011). Briefly, AggreSure™ β-Amyloid (1-42), human monomers (Anaspec) were resuspended in DMSO followed by PBS to form a 100 μM solution. Aβ42 monomers were subsequently incubated at 4° C. for 24 hours, then frozen at −80° C. to stop the oligomerization process. Five to six lots of Aβ42 monomers were screened at time and assessed for neurotoxic and the degree of toxicity. About twenty lots for screened in the course of 4 years. For fluorescent Aβ42 oligomer experiments, Beta-Amyloid (1-42), HiLyte™ Fluor 555-labeled, Human (Anaspec) was used. […]
Several additional tau phosphorylation sites observed in AD, S396/404, S217, S235, S400/T403/S404, and T181, were hyperphosphorylated when treated with Aβ42 oligomers (FIGS. 4V-4Z). […] Using this quantitative platform, the half-maximal inhibitory concentration (IC50) for anti-Aβ antibody rescue of MAP2, synapsin, and pTau induction was generated (FIG. 3R).

The test system of another experiment is primary human astrocytes. As to the kind of experiment: Astrocyte GFAP expression in response to soluble Aβ species. The note with it: astrocytes cultured alone; 3DIV. It is filed as cell-based.

Protocol for primary human astrocytes: Error bars+/−s.e.m. and n=4 wells; ANOVA ****P<0.0001, ***P<0.001, **P<0.01.
Astrocytes were then validated. Briefly, primary human astrocytes were detached using Accumax (Innovative Cell Technologies) and seeded onto 384-well plates coated with 1:100 Geltrex™ (Thermofisher) solution for at least 1 hour in a 37° C. cell incubator. Cells were seeded at a density of 2,000 cells/well in Neuron Maintenance Medium (1× BrainPhys™ Basal (StemCell Technology), 1× B27 with Vitamin A, 1×N-2, 5 μg/mL cholesterol, 1 mM creatine, 10 nM β-estradiol, 200 nM ascorbic acid, 1 mM cAMP (Sigma-Aldrich), 20 ng/mL BDNF, 20 ng/mL GDNF, 1 μg/mL Laminin, 0.5 mM GlutaMAX™ (Thermofisher), 1 ng/mL TGF-β1, 1× normocin, 50 U/mL penicillin-streptomycin). Cells were placed in 37° C. cell incubator for 24 hours to allow for attachment. Aβ42 and antibody treatments were added as described in other Examples. Astrogliosis was validated was validated by immunostaining of the following markers: Guinea Pig anti GFAP (1:500), Rabbit anti EAAT1 (1:500), Rabbit anti vimentin (1:500), Rabbit ALDH1L1 (1:500).

With Crenezumab: anti-Aβ antibody, the “phospho-Tau p396-404 and p400-403-404 upregulation” value with soluble Aβ42 species (NAG-NSC Line 2) is “blocked”. Further, the “loss of dendrites (MAP2) and synapses (synapsin)” value in the experiment with soluble Aβ42 species (NAG-NSC Line 2 and primary astrocytes, 5 μM soluble Aβ species, 7 days) is listed as “rescued”. In addition, the “GFAP upregulation by soluble Aβ species” value in the experiment with primary human astrocytes is “blocked”.
